These results are taken from publication PMC11983575, “Study on the synthesis and biological activity of kojic acid triazol thiosemicarbazide Schiff base derivatives” (Journal of Enzyme Inhibition and Medicinal Chemistry, 2025).

A short description of test [1]: DPPH free radical scavenging activity assay. To be noted: DPPH 150 μM, 30 min, 517 nm; read-out: DPPH/IC50 (μM) ± SD. How it is done: The anti-oxidation effect on DPPH radical was determined by a slightly modified version of a previously described DPPH radical scavenging assay. Reaction mixtures consisted of 100 μl of DPPH (150 μM), 20 μl of increasing concentration of test compounds and the volume was adjusted to 200 μl in each well with DMSO. The assay solution was then incubated at room temperature (25 °C) for 30 min in the dark. After the incubation, absorbance at 517 nm was measured by using UV-2600 spectrophotometer. The experiments were undertaken in triplicate. DMSO was used as a control. Ascorbic acid was used as antioxidant standard for comparison of the activity. The calculation of DPPH radical scavenging activity was followed by this formula: DPPH radical scavenging activity %=absorbance of standard−absorbance of sample/Absorbance of standard×100
Background: DPPH is a stable violet radical that fades when it is reduced.

Test [2] is described as follows: ABTS radical cation scavenging activity assay. To be noted: 734 nm; read-out: ABTS+/IC50 (μM) ± SD. As for the experimental part:
ABTS free radical scavenging activity was performed according to the procedure described by Zhang et al.[40] Test solution of ABTS decolourisation assay was prepared by mixing 2.45 mM potassium persulfate and 7 mM ABTS at 8:12 volume/volume ratio. The working solution was kept in the dark at room temperature for 12–18 h. Before ABTS radical scavenging test, the ABTS test solution was diluted with DMSO to absorbance of 0.7 (±0.02) at 734 nm. One millilitre of diluted ABTS test solution was added to 10 μl of DMSO or test sample. After initial mixing, the working solution was kept in the dark at room temperature for 2–6 min, and the absorbance was measured at 734 nm. This test was carried out in triplicate. DMSO was used as a control. Ascorbic acid was used as antioxidant standard for comparison of the activity. The absorbance of test samples was calculated by the following formula. ABTS scavenging ability %=absorbance of standard−absorbance of sample/absorbance of standard×100.

The target in test [3] is mushroom tyrosinase (Agaricus bisporus, UniProt C7FF04). The test is described as follows: In vitro mushroom tyrosinase inhibition (L-DOPA substrate). Type of test: biochemical. To be noted: 475 nm, read-out: IC50 (μM) ± SD, inhibitory tyrosinase activity. As for the experimental part: The mushroom tyrosinase inhibitory activity was determined according to previous described method. Briefly, 168 μl of phosphate buffer (0.1 M, pH 6.8), 10 μl of mushroom tyrosinase (0.5 mg/ml, Sigma Chemical, St. Louis, MO) and 2 μl of the inhibitor solution were placed in the wells of a 96-well micro plate. After pre-incubation for 20 min at 37 °C, 20 μl of 2.0 mg/ml L-DOPA (3,4-dihydroxyphenylalanine, Sigma Chemical, St. Louis, MO) was added and the enzyme activity was measured at 475 nm every 60 s for 180 s in a Microplate Reader (Bio-Rad Laboratories, Inc., Hercules, CA). Kojic acid and phosphate buffer were respectively used as positive and negative control. The extent of inhibition by the test compounds was expressed as the percentage of concentration necessary to achieve 50% inhibition (IC50). The percentage of inhibition was calculated as follows: inhibitory rate (%) = [Ac − At)/Ac] × 100. Ac is the absorbance of the negative control and At is the absorbance of the test compound. Each concentration was analysed in three independent experiments run in triplicate. The IC50 values were determined by the data analysis software GraphPad Prism 8 (La Jolla, CA).
Chain of mushroom tyrosinase (C7FF04 1-392): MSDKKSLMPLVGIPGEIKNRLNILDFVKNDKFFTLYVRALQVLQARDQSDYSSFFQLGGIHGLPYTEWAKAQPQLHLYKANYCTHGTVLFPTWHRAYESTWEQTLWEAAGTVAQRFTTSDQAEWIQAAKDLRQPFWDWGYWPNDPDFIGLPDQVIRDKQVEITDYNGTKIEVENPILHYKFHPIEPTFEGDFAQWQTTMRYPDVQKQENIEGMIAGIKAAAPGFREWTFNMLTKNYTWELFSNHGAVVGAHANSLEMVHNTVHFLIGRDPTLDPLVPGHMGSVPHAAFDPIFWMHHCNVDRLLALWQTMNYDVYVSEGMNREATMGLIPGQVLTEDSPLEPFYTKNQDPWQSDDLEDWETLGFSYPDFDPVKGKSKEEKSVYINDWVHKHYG
The tyrosinase inhibition measurements of compounds 6a–6x were carried out using L-DOPA as substrate. Kojic acid was selected as a positive control compound. […]. […] Moreover, inhibitory activity of compound with hydroxyl group at papa position is better than the inhibitory activity of compound with hydroxyl group at meta position, and inhibitory activity of compound with hydroxyl group at meta position is better than the inhibitory activity of compound with hydroxyl group at ortho position. […]. […] In addition, with the increase of atomic radius, the inhibitory activity gradually decreases. (3) The inhibitory activity of alkoxy substituted compound is better than that of alkyl substituted compound. (4) Comparing the tyrosinase inhibitory activity of compounds with halogen atom (6b–6d, 6q–6s) and compounds with methyl or methoxy (6e–6f, 6t–6u), when the hydrogen (R^2) was replaced by the methyl (R^2), the inhibitory activity was decreased.

Test [4] has as its system fresh-cut apples. In words: Effects on the browning process of fresh-cut apples. Also noted: species or system Fuji apples. To be noted: 6w 25, 50, 100 μM; storage at 5 °C for five days; kojic acid and vitamin C 50 μM as positive controls. As for the experimental part: Fuji apples were planted in Yantai, China, and were bought from Walmart supermarket in Shaoyang, China. The apples were come from the same batch having similar shapes, maturity, and without injuries, rot, diseases, or pests. Apples were cut into thin pieces with same size by using a sharp knife. Then, the fresh-cut slices were divided randomly into different groups: blank control group was immersed in ethanol for 10 min at room temperature, treatment groups were dipped in the solution of compound 6w under the same conditions, positive groups were dipped in 50 μM kojic acid and 50 μM vitamin C under the same conditions. The test samples were air-dried naturally and immediately were separately packaged with polyethylene clam-packs, and stored at 2–8 °C, and used for the following experimental measurements.
According to the reported protocol, the colour of apple samples was tested by a CR-400 Minolta […] instrument (Konica Minolta, Osaka, Japan). Three data of L*, a*, and b* were recorded for each sample. The L* values indicate lightness, the a* values show reddish-greenish, the b* values represent yellowish-bluish. The colour measurement was carried out in triplicate by random sampling.
Therefore, we further evaluated its anti-browning effect on apple, in which kojic acid and vitamin C were used as positive control. […]

“Also recorded” adds a separate entry of the source.

As to “2-(1-(4-((1-((5-Hydroxy-4-oxo-4H-pyran-2-yl)methyl)-1H-1,2,3-triazol-5-yl)methoxy)phenyl)ethylidene)hydrazinecarbothioamide [Compound 6w]”, the IC50 in test [1] worked out at 14.44 ± 0.077 µM; in test [2], 3.03 ± 0.009 µM; in test [3], 0.94 ± 0.035 µM. Besides, the “anti-browning effect on fresh-cut apple (L* values, colour)” value in test [4] was “potent anti-browning agent; also recorded: better than that of kojic acid and ascorbic acid; also recorded: some anti-browning effect”.
